For 10 compounds, inhibition and IC50 results are on record in patent US6900200B2, “Tricyclic hydroxy carboxamides and derivatives thereof tocolytic oxytocin receptor antagonists” (Wyeth, priority 2001, dated 2005).

The target of one assay is T1, human oxytocin receptor (Homo sapiens, UniProt P30559).
T1 construct: host or cells: CHO cells, pcDNA3.1 vector
T1 sequence (P30559 1-389): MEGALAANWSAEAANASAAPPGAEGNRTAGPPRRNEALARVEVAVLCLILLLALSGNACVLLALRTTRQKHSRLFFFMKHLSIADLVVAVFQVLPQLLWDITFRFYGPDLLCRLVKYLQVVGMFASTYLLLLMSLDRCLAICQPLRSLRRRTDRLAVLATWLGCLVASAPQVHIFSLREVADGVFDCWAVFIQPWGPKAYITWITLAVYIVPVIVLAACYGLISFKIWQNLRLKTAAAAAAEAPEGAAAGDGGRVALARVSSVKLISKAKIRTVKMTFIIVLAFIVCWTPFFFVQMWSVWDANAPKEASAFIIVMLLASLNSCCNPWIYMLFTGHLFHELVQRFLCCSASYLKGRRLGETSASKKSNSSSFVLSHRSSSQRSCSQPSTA
Briefly: Oxytocin binding in CHO cell membranes expressing human oxytocin receptors ([3H]oxytocin radioligand binding). Conditions: @ 100 nM, read-out: OT % inhibition @ 100 nM. An excerpt:
Oxytocin Binding in Chinese Hamster Ovary Cell Membranes Expressing Human Oxytocin Receptors
Chinese Hamster Ovary (CHO) cells stably transfected with the human oxytocin receptor (cf. Tanizawa et al., U.S. Pat. No. 5,466,584 (1995) to Rohto Pharmaceutical Co. Ltd., Osaka, Japan) were obtained from M. Thibonnier, Case Western Reserve University School of Medicine, Cleveland, Ohio.
A. Passaging and Amplification of Cells
CHO cells transfected with the human oxytocin receptors obtained from M. Thibonnier (pcDNA3.1 vector) are allowed to grow to confluency (approx. >90%) in T-150 flasks under sterile conditions, in a cell culture medium of F-12 Nutrient Mixture (HAM) with L-glutamine (Gibco Cat. #11765-054) containing 15 mM HEPES (Gibco Cat. #15630-080), 1% antibiotic/antimycotic (add 5 mL 100×, Gibco Cat. #15240-062 per 500 mL F-12), 400 μg/mL of Geneticin (add 4 mL of 50 mg/mL per 500 mL F-12) and 10% Fetal Bovine Serum (Qualified, heat inactivated, Gibco Cat. #16140-063). The medium is removed by aspiration and the cells are washed with 10 mL of Hank's Balanced Salt solution (Gibco Cat. #14175-095). The salt solution is removed by aspiration and the cells trypsinized with 5 mL of trypsin-EDTA (0.05% trypsin, 0.53 mM EDTA-4Na, Gibco Cat. #25300-070) for 1 min. The trypsin is removed by aspiration and the cells dislodged by tapping. Cell Culture medium (e.g. 30 mL for 1:30 split) is immediately added and mixed well to inactivate trypsin. 1 mL of detached cells is added to new culture flasks containing fresh Cell Culture medium (e.g. into 25 mL per T-150 flask), and mixed gently. The cells are incubated at 37° C. in 5% CO2. The medium is changed at 3 to 4 days interval (or as appropriate). The cells grow to confluency (approx. >75%-95%) within 7-8 days. All steps are done under sterile conditions.
The cells are washed twice gently with Hank's Balanced Salt solution (e.g., use 10 mL per T-1 50 flask). The excess solution is removed and the cells bathed for 15-30 min. in an enzyme-free Cell Dissociation Buffer (e.g., use 8 mL Hank's Based, Gibco Cat. #13150-016 per T-150 flask) until cells are loosened. The contents are transferred to centrifuge tubes (50 mL size) kept in ice bath. All subsequent steps are done at 4° C. The tubes are centrifuged at 300×g for 15 min (1380 rpm on SORVAL, Model RT6000D, using rotor for 50 mL tubes). The supernatant is discarded and the cells suspended in homogenizing buffer (10 mM Tris-HCl containing 0.25 M sucrose and 1 mM EDTA, pH 7.4) ensuring that the volume of the buffer is about ten times the volume of the cell pellet. The cells are pooled into a centrifuge tube (50 mL) and homogenized with a Polytron at setting 6 for 10 sec. The homogenate is transferred into a Potter-Elvjehm homogenizer and homogenized with 3 strokes. The homogenate is centrifuged at 1500×g for 10 min at 4° C. (3100 rpm using SORVAL, model RT6000D, using rotor for 50 mL tubes). The pellet is discarded. The supernatant is centrifuged at 100,000×g for 60 min. at 4° C. (Beckman L8-80M ultracentrifuge; spin at 37,500 rpm with rotor type 70 Ti for 50 mL tubes; 38,000 rpm with type 80Ti for 15 mL tubes; or 35,800 rpm with rotor type 45Ti). The supernantant is discarded and the pellet suspended in 3 to 4 mL of Tris buffer (50 mM TRIS—HCl, pH 7.4). The protein content is estimated by the Bradford or Lowry method. The volume of the membrane suspension is adjusted with the membrane buffer (50 mM Tris-HCl containing 0.1% BSA and 0.1 mM PMSF) to give 3.0 mg/mL (or as appropriate) of protein. The membranes are aliquoted and stored at −70° C.
C. Radioligand Binding Assay
In wells of a 96-well format microtiter plate, is added 90, 110 or 130 μL (to make up a final volume of 200 μL) of assay buffer containing 50 mM of Tris-HCl (pH 7.4), […], 1 mg % aprotinin, 1 mg % leupeptin, 2 mg % 1,10-phenanthroline, 10 mg % trypsin inhibitor, and 0.1 mM PMSF. […]
On to `COc1ccccc1-c1ccc(C(=O)N2Cc3ccc(C(=O)N4CCN(CCO)CC4)n3Cc3ccccc32)cc1OC` [Example 43, {10-[(2,2′-Dimethoxy[1,1′-biphenyl]-4-yl)carbonyl]-10,11-dihydro-5H-pyrrolo[2,1-c][1,4]benzodiazepin-3-yl}[4-(2-hydroxyethyl)-1-piperazinyl]methanone], for which the inhibition (in general, the relative decrease from the control value, in per cent) at 0.1 µM came to 75%.
On the same count and under the same terms, for `COc1cccc(-c2ccc(C(=O)N3Cc4ccc(C(=O)N5CCN(CCO)CC5)n4Cc4ccccc43)cc2C)c1` [Example 44, [4-(2-Hydroxyethyl)-1-piperazinyl]{10-[(3′-methoxy-2-methyl[1,1′-biphenyl]-4yl)carbonyl]-10,11-dihydro-5H-pyrrolo[2,1-c][1,4]benzodiazepin-3-yl}methanone] the value was 83%; for `Cc1ccccc1-c1ccc(C(=O)N2Cc3ccc(C(=O)N4CCN(CCO)CC4)n3Cc3ccccc32)cc1` [Example 45, [4-(2-Hydroxyethyl)-1-piperazinyl]{10-[(2′-methyl[1,1′-biphenyl]-4-yl)carbonyl]-10,11-dihydro-5H-pyrrolo[2,1-c][1,4]benzodiazepin-3-yl}methanone], 87%.
With `Cc1ccccc1-c1ccc(C(=O)N2Cc3ccc(C(=O)N4CCN(CCO)CC4)n3Cc3ccccc32)cc1C` [Example 46, {10-[(2,2′-Dimethyl[1,1′-biphenyl]-4-yl)carbonyl]-10,11-dihydro-5H-pyrrolo[2,1-c][1,4]benzodiazepin-3-yl}[4-(2-hydroxyethyl)-1-piperazinyl]methanone], the inhibition at 0.1 µM is 97%.
As to `COc1ccccc1-c1ccc(C(=O)N2Cc3ccc(C(=O)N4CCN(CCO)CC4)n3Cc3ccccc32)cc1` [Example 47, [4-(2-Hydroxyethyl)-1-piperazinyl]{10-[(2′-methoxy[1,1′-biphenyl]-4-yl)carbonyl]-10,11-dihydro-5H-pyrrolo[2,1-c][1,4]benzodiazepin-3-yl}methanone], the inhibition at 0.1 µM is 55%.
With `Cc1cc(C(=O)N2Cc3ccc(C(=O)N4CCN(CCO)CC4)n3Cc3ccccc32)ccc1-c1ccccc1C(F)(F)F` [Example 48, [4-(2-Hydroxyethyl)-1-piperazinyl](10-{[2-methyl-2′-(trifluoromethyl)[1,1′-biphenyl]-4-yl)carbonyl}-10,11-dihydro-5H-pyrrolo[2,1-c][1,4]benzodiazepin-3-yl)methanone], the inhibition at 0.1 µM is 79%.
As to `COc1cccc(-c2cc(OC)c(C(=O)N3Cc4ccc(C(=O)N5CCN(CCO)CC5)n4Cc4ccccc43)cc2Cl)c1` [Example 49, {10-[(6-Chloro-3,3′-dimethoxy[1,1′-biphenyl]-4-yl)carbonyl]-10,11-dihydro-5H-pyrrolo[2,1-c][1,4]benzodiazepin-3-yl}[4-(2-hydroxyethyl)-1-piperazinyl]methanone], the inhibition at 0.1 µM worked out at 81%.
On to `COc1cccc(-c2ccc(C(=O)N3Cc4ccc(C(=O)N5CCN(CCO)CC5)n4Cc4ccccc43)cc2OC)c1` [Example 50, {10-[(2,3′-Dimethoxy[1,1′-biphenyl]-4-yl)carbonyl]-10,11-dihydro-5H-pyrrolo[2,1-c][1,4]benzodiazepin-3-yl}[4-(2-hydroxyethyl)-1-piperazinyl]methanone], for which the inhibition at 0.1 µM amounted to 83%.
On the same count and under the same terms, for `COc1cc(C(=O)N2Cc3ccc(C(=O)N4CCN(CCO)CC4)n3Cc3ccccc32)ccc1-n1c(C)ccc1C` [Example 52, {10-[4-(2,5-Dimethyl-1H-pyrrol-1-yl)-3-methoxybenzoyl]-10,11-dihydro-5H-pyrrolo[2,1-c][1,4]benzodiazepin-3-yl}[4-(2-hydroxyethyl)-1-piperazinyl]methanone] the value was 36%.

Staying with this assay, now noted: value printed in parentheses, read-out: OT (IC50).
As for “{(2S)-1-[(10-{[2-Methoxy-2(trifluoromethyl)[1,1′-biphenyl]-4-yl]carbonyl}-10,11-dihydro-5H-pyrrolo[2,1-c][1,4]benzodiazepin-3-yl)carbonyl]pyrrolidin-2-yl}-methanol [Example 36]”, the IC50 (commonly the concentration at which inhibition is half-maximal) was 7.95 nM.
